Assays:
[1] = molar heat capacity at constant pressure; details: 101.33 kPa, Liquid, Vacuum adiabatic calorimetry
[2] = Molar enthalpy of transition or fusion; details: Crystal; Adiabatic calorimetry
[3] = Crystal

CCCCn1cc[n+](C)c1.O=S(=O)([O-])C(F)(F)F [1-butyl-3-methylimidazolium trifluoromethanesulfonate]
[1]
Details	molar heat capacity at constant pressure [J/K/mol]
292.86 K	425
294.76 K	425.9
296.65 K	427
298.54 K	427.9
300.43 K	429.1
302.38 K	429.6
304.36 K	431.1
306.35 K	431.9
308.34 K	433.1
310.33 K	434
312.32 K	435.1
314.31 K	436.3
316.3 K	437.1
318.29 K	438.3
320.27 K	439.1
322.26 K	440.6
324.25 K	441.4
326.24 K	442.6
328.22 K	443.8
330.2 K	444.6
332.19 K	445.8
334.17 K	446.9
336.15 K	447.8
338.13 K	448.9
340.11 K	449.8
342.09 K	451
344.07 K	452.1
346.05 K	453.3
348.03 K	454.3
350 K	455.5
351.98 K	456.3
353.96 K	457.8
355.94 K	458.6
357.92 K	459.5
359.89 K	460.7
361.87 K	462.1
363.84 K	463
365.81 K	464.1
367.78 K	465

Details	Molar enthalpy of transition or fusion [kcal/mol]	Triple point temperature [K]
[2]	4.637	–
[3]	–	290.98

CCCC[N+](C)(C)C.O=S(=O)([N-]S(=O)(=O)C(F)(F)F)C(F)(F)F [butyltrimethylammonium bis(trifluoromethylsulfonyl)imide]
[1]
Details	molar heat capacity at constant pressure [J/K/mol]
278.32 K	547.5
280.19 K	548.7
282.06 K	549.7
283.93 K	550.8
285.8 K	551.9
287.67 K	553
289.54 K	554.1
291.42 K	555.3
293.29 K	556.4
293.87 K	557
295.16 K	557.4
297.04 K	558.4
298 K	559.2
298.91 K	559.5
300.04 K	560.4
302.07 K	561.1
304.14 K	563.3
306.21 K	563.9
308.28 K	565.4
310.35 K	566.5
312.42 K	568.2
314.49 K	569.1
316.55 K	570.3
318.6 K	571.4
320.67 K	573.2
322.73 K	575.1
324.8 K	575
326.86 K	576.5
328.92 K	577.2
330.98 K	578.5
333.04 K	580.6
335.09 K	581.5
337.15 K	582.9
339.2 K	584.1
341.26 K	585.7
343.31 K	586.6
345.36 K	587.7
347.41 K	588.6
349.46 K	590.1
351.49 K	591.1
353.54 K	592.1
355.59 K	593.4
357.65 K	594.8
359.7 K	596
361.76 K	597.4
363.81 K	598.5
365.87 K	599.8
367.93 K	600.9

Details	Molar enthalpy of transition or fusion [kcal/mol]	Triple point temperature [K]
[2]	2.725	–
[3]	–	290.23
